Key:
Type in all cases: in vivo
rice (Oryza sativa) = experiment: Test B flooded paddy test, visual plant response rating 0-100; conditions: 250 g ai/ha, Flood, applied to paddy water, evaluated after 13 days
How it was run: (§1)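 Visual scores versus untreated controls were recorded 13 days after treatment of greenhouse-held plants. At the 2-leaf stage, pots were flooded 3 cm above the soil surface and compounds added straight to the water.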

[1] = test system: ducksalad (Heteranthera limosa); experiment: as above; conditions: 250 g ai/ha, Flood, applied to paddy water, evaluated after 13 days
How it was run: as §1

[2] = test system: barnyardgrass (Echinochloa crusgalli); experiment: as above; conditions: 250 g ai/ha, Flood, applied to paddy water, evaluated after 13 days
How it was run: as §1

[3] = test system: sedge, umbrella (small-flower umbrella sedge, Cyperus difformis); experiment: as above; conditions: 250 g ai/ha, Flood, applied to paddy water, evaluated after 13 days
How it was run: as §1

[4] = test system: ragweed (common ragweed, Ambrosia artemisiifolia); experiment: Test A preemergence soil spray, visual injury rating 0-100; conditions: 10 days, 0 = no effect, 100 = complete control
How it was run: (§2)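 Directed preemergence spray onto seeded soil or postemergence spray onto 2-10 cm plants (loam plus sand); compound carried in surfactant-containing non-phytotoxic solvent. Injury rated by eye after 10 d greenhouse growth; 0 = no effect, 100 = complete control.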

[5] = test system: palmer (palmer amaranth, palmer pigweed, Amaranthus palmeri); experiment: as above; conditions: 10 days, 0 = no effect, 100 = complete control
How it was run: as §2

[6] = test system: ryegrass, Italian (italian ryegrass, Lolium multiflorum); experiment: as above; conditions: 10 days, 0 = no effect, 100 = complete control
How it was run: as §2

kochia (Bassia scoparia) [7] = experiment: as above; conditions: 10 days, 0 = no effect, 100 = complete control
How it was run: as §2

soybean (Glycine max) [8] = experiment: as above; conditions: 10 days, 0 = no effect, 100 = complete control
How it was run: as §2

[9] = test system: blackgrass (Alopecurus myosuroides); experiment: as above; conditions: 10 days, 0 = no effect, 100 = complete control
How it was run: as §2

[10] = test system: barnyardgrass (Echinochloa crus-galli); experiment: as above; conditions: 10 days, 0 = no effect, 100 = complete control
How it was run: as §2

corn (Zea mays) [11] = experiment: as above; conditions: 10 days, 0 = no effect, 100 = complete control
How it was run: as §2

[12] = test system: green foxtail (Setaria viridis); experiment: as above; conditions: 10 days, 0 = no effect, 100 = complete control
How it was run: as §2

[13] = test system: wheat (Triticum aestivum); experiment: as above; conditions: 10 days, 0 = no effect, 100 = complete control
How it was run: as §2

[14] = test system: oat, wild (wild oat, Avena fatua); experiment: as above; conditions: 10 days, 0 = no effect, 100 = complete control
How it was run: as §2

[15] = test system: ragweed (common ragweed, Ambrosia artemisiifolia); experiment: Test A postemergence application, visual injury rating 0-100; conditions: 10 days
How it was run: as §2

[16] = test system: palmer (palmer amaranth, palmer pigweed, Amaranthus palmeri); experiment: as above; conditions: 10 days
How it was run: as §2

[17] = test system: ryegrass, Italian (italian ryegrass, Lolium multiflorum); experiment: as above; conditions: 10 days
How it was run: as §2

kochia (Bassia scoparia) [18] = experiment: as above; conditions: 10 days
How it was run: as §2

soybean (Glycine max) [19] = experiment: as above; conditions: 10 days
How it was run: as §2

[20] = test system: blackgrass (Alopecurus myosuroides); experiment: as above; conditions: 10 days
How it was run: as §2

[21] = test system: barnyardgrass (Echinochloa crus-galli); experiment: as above; conditions: 10 days
How it was run: as §2

[22] = test system: galium (catchweed bedstraw, Galium aparine); experiment: as above; conditions: 10 days
How it was run: as §2

corn (Zea mays) [23] = experiment: as above; conditions: 10 days
How it was run: as §2

[24] = test system: green foxtail (Setaria viridis); experiment: as above; conditions: 10 days
How it was run: as §2

[25] = test system: horseweed (Erigeron canadensis); experiment: as above; conditions: 10 days
How it was run: as §2

[26] = test system: wheat (Triticum aestivum); experiment: as above; conditions: 10 days
How it was run: as §2

[27] = test system: oat, wild (wild oat, Avena fatua); experiment: as above; conditions: 10 days
How it was run: as §2

[28] = 31 g ai/ha, postemergence, 0 = no effect, 100 = complete control
[29] = Postemergence, 125 g ai/ha, 0 is no effect, 100 is complete control

## CC1(C(=O)NC2C=CC(C(=O)OC3CCCC3)C2)CN(c2cc(F)cc(F)c2)C(=O)O1 (stereo not shown) [Compound 57]
Rice (Oryza sativa)
  Plant response rating, Rice (0 to 100 scale, 0 is no effect and 100 is complete control): 20
[1]
  Plant response rating, Ducksalad (0 to 100 scale, 0 is no effect and 100 is complete control): 100
[2]
  Plant response rating, Barnyardgrass (0 to 100 scale, 0 is no effect and 100 is complete control): 90
[3]
  Plant response rating, Sedge, Umbrella (0 to 100 scale, 0 is no effect and 100 is complete control): 55
[4]; 31 g ai/ha
  Ragweed plant response rating (0-100): 0
[4]; 125 g ai/ha
  Ragweed plant response rating (0 to 100 scale): 0
[5]; 31 g ai/ha
  Amaranth, Palmer plant response rating (0-100): 10
[5]; 125 g ai/ha
  Amaranth, Palmer plant response rating (0 to 100 scale): 70
[6]; 31 g ai/ha
  Ryegrass, Italian plant response rating (0-100): 50
[6]; 125 g ai/ha
  Ryegrass, Italian plant response rating (0 to 100 scale): 100
Kochia (Bassia scoparia) [7]; 31 g ai/ha
  Kochia plant response rating (0-100): 0
Kochia (Bassia scoparia) [7]; 125 g ai/ha
  Kochia plant response rating (0 to 100 scale): 90
Soybean (Glycine max) [8]; 31 g ai/ha
  Soybean plant response rating (0-100): 50
Soybean (Glycine max) [8]; 125 g ai/ha
  Soybean plant response rating (0 to 100 scale): 80
[9]; 31 g ai/ha
  Blackgrass plant response rating (0-100): 70
[9]; 125 g ai/ha
  Blackgrass plant response rating (0 to 100 scale): 90
[10]; 31 g ai/ha
  Barnyardgrass plant response rating (0-100): 50
[10]; 125 g ai/ha
  Barnyardgrass plant response rating (0 to 100 scale): 100
Corn (Zea mays) [11]; 31 g ai/ha
  Corn plant response rating (0-100): 10
Corn (Zea mays) [11]; 125 g ai/ha
  Corn plant response rating (0 to 100 scale): 90
[12]; 31 g ai/ha
  Foxtail, Green plant response rating (0-100): 0
[12]; 125 g ai/ha
  Foxtail, Green plant response rating (0 to 100 scale): 50
[13]; 31 g ai/ha
  Wheat plant response rating (0-100): 90
[13]; 125 g ai/ha
  Wheat plant response rating (0 to 100 scale): 100
[14]; 31 g ai/ha
  Oat, Wild plant response rating (0-100): 90
[14]; 125 g ai/ha
  Oat, Wild plant response rating (0 to 100 scale): 90
[15]; [28]
  Ragweed plant response rating (0-100): 40
[15]; [29]
  Ragweed plant response rating (0 to 100 scale): 60
[16]; [28]
  Amaranth, Palmer plant response rating (0-100): 20
[16]; [29]
  Amaranth, Palmer / Pigweed, Palmer plant response rating (0 to 100 scale): 70
[17]; [28]
  Ryegrass, Italian plant response rating (0-100): 90
[17]; [29]
  Ryegrass, Italian plant response rating (0 to 100 scale): 90
Kochia (Bassia scoparia) [18]; [28]
  Kochia plant response rating (0-100): 80
Kochia (Bassia scoparia) [18]; [29]
  Kochia plant response rating (0 to 100 scale): 80
Soybean (Glycine max) [19]; [28]
  Soybean plant response rating (0-100): 60
Soybean (Glycine max) [19]; [29]
  Soybean plant response rating (0 to 100 scale): 70
[20]; [28]
  Blackgrass plant response rating (0-100): 90
[20]; [29]
  Blackgrass plant response rating (0 to 100 scale): 90
[21]; [28]
  Barnyardgrass plant response rating (0-100): 100
[21]; [29]
  Barnyardgrass plant response rating (0 to 100 scale): 100
[22]; [28]
  Galium plant response rating (0-100): 80
[22]; [29]
  Galium plant response rating (0 to 100 scale): 80
Corn (Zea mays) [23]; [28]
  Corn plant response rating (0-100): 90
Corn (Zea mays) [23]; [29]
  Corn plant response rating (0 to 100 scale): 100
[24]; [28]
  Foxtail, Green plant response rating (0-100): 30
[24]; [29]
  Foxtail, Green plant response rating (0 to 100 scale): 90
[25]; [28]
  Horseweed plant response rating (0-100): 0
[25]; [29]
  Horseweed plant response rating (0 to 100 scale): 60
[26]; [28]
  Wheat plant response rating (0-100): 90
[26]; [29]
  Wheat plant response rating (0 to 100 scale): 90
[27]; [28]
  Oat, Wild plant response rating (0-100): 90
[27]; [29]
  Oat, Wild plant response rating (0 to 100 scale): 90
